Source: ChEMBL document CHEMBL4507291 (2021)

Columns and labels:
[1] = target: Maternal embryonic leucine zipper kinase (Homo sapiens) (UniProt Q14680); test: MELK Kinase screen; conditions: Compound concentration 1.0 uM
[2] = target: Dual specificity tyrosine-phosphorylation-regulated kinase 1B (Homo sapiens) (UniProt Q9Y463); test: DYRK1B Kinase screen; conditions: Compound concentration 1.0 uM
[3] = target: Glutamate NMDA receptor (Rattus norvegicus) (UniProt P35439+Q00959+Q00960+Q00961+Q62645+Q8VHN2+Q9R1M7); conditions: Compound concentration 10.0 uM
[4] = target: Glycogen synthase kinase-3 beta (Homo sapiens) (UniProt P49841); test: GSK3B (GSK3 beta) Kinase screen; conditions: Compound concentration 1.0 uM
[5] = target: C-X-C chemokine receptor type 2 (Homo sapiens) (UniProt P25025); test: Inhibition of Chemokine CXCR2 (IL-8RB) at 10 µM in the Eurofins-Panlabs radioligand binding assay (Eurofins_assay_244500); conditions: Compound concentration 10.0 uM
[6] = target: Histamine H2 receptor (Homo sapiens) (UniProt P25021); conditions: Compound concentration 10.0 uM
[7] = target: Dual specificity protein kinase CLK2 (Homo sapiens) (UniProt P49760); test: CLK2 Kinase screen; conditions: Compound concentration 1.0 uM
[8] = target: T1, Mitogen-activated protein kinase kinase kinase 3 (Homo sapiens) (UniProt Q99759); test: MAP3K3 (MEKK3) Kinase screen; conditions: Compound concentration 1.0 uM
T1 sequence (whole entry): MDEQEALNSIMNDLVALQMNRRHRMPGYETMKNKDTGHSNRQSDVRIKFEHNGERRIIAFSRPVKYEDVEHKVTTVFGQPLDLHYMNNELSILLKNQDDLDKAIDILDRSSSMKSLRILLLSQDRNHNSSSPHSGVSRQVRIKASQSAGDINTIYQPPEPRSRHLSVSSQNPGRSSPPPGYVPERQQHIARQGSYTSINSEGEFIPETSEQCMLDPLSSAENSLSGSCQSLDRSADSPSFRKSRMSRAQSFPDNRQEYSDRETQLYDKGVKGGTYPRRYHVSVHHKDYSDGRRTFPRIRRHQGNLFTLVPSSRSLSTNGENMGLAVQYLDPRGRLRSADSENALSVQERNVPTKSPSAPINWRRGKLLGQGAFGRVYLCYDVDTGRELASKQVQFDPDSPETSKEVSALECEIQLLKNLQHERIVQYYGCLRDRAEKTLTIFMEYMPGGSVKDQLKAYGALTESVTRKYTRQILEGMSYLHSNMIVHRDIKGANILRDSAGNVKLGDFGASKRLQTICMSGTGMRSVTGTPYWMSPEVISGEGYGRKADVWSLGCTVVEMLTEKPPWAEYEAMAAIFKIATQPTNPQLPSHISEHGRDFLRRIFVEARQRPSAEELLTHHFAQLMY

[9] = target: Casein kinase II subunit alpha (Homo sapiens) (UniProt P68400); test: CSNK2A1 (CK2 alpha 1) Kinase screen; conditions: Compound concentration 1.0 uM
[10] = target: 5-hydroxytryptamine receptor 1B (Homo sapiens) (UniProt P28222); test: Inhibition of Serotonin (5-Hydroxytryptamine) 5-HT1B at 10 µM in the Eurofins-Panlabs radioligand binding assay (Eurofins_assay_271200); conditions: Compound concentration 10.0 uM
[11] = target: Serine/threonine-protein kinase PAK 5 (Homo sapiens) (UniProt Q9P286); test: PAK7 (KIAA1264) Kinase screen; conditions: Compound concentration 1.0 uM
[12] = target: T2, Tyrosine-protein kinase Mer (Homo sapiens) (UniProt Q12866); test: MERTK (cMER) Kinase screen; conditions: Compound concentration 1.0 uM
T2 sequence (whole entry): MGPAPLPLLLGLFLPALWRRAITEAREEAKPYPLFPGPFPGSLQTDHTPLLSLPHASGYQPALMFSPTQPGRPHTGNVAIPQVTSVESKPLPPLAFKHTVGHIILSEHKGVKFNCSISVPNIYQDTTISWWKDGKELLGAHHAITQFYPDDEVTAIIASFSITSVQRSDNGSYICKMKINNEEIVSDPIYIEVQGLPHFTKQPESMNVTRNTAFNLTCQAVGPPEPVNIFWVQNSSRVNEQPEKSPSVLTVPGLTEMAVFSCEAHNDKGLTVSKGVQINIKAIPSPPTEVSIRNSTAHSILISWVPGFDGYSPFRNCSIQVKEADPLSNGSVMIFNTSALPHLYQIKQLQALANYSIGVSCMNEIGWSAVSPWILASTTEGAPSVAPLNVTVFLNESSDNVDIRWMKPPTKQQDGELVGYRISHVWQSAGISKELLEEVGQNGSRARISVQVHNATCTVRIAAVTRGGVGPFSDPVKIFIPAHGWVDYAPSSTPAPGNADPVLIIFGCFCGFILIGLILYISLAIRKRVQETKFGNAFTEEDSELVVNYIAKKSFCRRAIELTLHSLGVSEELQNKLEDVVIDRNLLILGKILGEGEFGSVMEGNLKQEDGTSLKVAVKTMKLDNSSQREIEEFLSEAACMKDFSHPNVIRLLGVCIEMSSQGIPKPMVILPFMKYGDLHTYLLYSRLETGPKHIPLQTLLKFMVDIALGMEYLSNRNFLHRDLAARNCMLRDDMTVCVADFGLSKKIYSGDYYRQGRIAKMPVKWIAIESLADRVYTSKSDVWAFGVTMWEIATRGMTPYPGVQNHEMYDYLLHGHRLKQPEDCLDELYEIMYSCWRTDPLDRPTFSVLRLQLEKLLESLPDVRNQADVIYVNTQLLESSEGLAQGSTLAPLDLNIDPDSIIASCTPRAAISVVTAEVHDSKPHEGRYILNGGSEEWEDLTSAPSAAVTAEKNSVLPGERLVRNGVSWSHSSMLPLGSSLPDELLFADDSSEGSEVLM

[13] = target: T3, Megakaryocyte-associated tyrosine-protein kinase (Homo sapiens) (UniProt P42679); test: MATK (HYL) Kinase screen; conditions: Compound concentration 1.0 uM
T3 sequence (whole entry): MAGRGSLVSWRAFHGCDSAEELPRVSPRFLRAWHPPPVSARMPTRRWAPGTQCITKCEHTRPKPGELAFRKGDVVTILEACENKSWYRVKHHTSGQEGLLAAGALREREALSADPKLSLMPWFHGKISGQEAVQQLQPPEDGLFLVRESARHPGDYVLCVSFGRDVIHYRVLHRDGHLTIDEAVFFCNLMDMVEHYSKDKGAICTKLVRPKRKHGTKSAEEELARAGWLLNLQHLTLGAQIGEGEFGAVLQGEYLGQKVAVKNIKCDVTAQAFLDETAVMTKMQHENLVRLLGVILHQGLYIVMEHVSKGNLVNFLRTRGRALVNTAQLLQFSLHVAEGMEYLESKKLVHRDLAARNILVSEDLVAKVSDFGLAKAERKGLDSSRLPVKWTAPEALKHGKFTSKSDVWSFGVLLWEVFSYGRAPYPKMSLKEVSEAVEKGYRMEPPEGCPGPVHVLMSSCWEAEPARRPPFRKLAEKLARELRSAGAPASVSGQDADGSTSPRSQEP

[14] = target: Serine/threonine-protein kinase PLK2 (Homo sapiens) (UniProt Q9NYY3); test: PLK2 Kinase screen; conditions: Compound concentration 1.0 uM
[15] = target: 3-phosphoinositide-dependent protein kinase 1 (PDPK1) (Homo sapiens) (UniProt O15530); test: PDK1 Kinase screen; conditions: Compound concentration 1.0 uM
[16] = target: Serine/threonine-protein kinase pim-1 (Homo sapiens) (UniProt P11309); test: PIM1 Kinase screen; conditions: Compound concentration 1.0 uM

Measured: inhibition

3-phosphoinositide-dependent protein kinase 1 (PDPK1) (Homo sapiens), sequence (O15530 whole entry, looked up): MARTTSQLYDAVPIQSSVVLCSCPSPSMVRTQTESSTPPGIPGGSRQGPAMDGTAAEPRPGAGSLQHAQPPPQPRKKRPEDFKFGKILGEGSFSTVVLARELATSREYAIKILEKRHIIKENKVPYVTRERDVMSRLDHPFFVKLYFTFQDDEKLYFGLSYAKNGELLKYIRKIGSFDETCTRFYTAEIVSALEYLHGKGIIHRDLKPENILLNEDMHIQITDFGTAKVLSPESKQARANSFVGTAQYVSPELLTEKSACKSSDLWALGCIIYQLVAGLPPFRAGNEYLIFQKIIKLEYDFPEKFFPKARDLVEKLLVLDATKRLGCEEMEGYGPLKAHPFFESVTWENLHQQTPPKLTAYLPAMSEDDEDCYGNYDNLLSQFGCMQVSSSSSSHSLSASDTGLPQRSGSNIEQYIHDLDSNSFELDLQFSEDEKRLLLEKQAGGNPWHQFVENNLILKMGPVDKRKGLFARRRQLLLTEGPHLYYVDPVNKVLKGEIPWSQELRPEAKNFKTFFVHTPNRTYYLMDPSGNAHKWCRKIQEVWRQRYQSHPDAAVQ
Serine/threonine-protein kinase PLK2 (Homo sapiens), sequence (Q9NYY3 whole entry, looked up): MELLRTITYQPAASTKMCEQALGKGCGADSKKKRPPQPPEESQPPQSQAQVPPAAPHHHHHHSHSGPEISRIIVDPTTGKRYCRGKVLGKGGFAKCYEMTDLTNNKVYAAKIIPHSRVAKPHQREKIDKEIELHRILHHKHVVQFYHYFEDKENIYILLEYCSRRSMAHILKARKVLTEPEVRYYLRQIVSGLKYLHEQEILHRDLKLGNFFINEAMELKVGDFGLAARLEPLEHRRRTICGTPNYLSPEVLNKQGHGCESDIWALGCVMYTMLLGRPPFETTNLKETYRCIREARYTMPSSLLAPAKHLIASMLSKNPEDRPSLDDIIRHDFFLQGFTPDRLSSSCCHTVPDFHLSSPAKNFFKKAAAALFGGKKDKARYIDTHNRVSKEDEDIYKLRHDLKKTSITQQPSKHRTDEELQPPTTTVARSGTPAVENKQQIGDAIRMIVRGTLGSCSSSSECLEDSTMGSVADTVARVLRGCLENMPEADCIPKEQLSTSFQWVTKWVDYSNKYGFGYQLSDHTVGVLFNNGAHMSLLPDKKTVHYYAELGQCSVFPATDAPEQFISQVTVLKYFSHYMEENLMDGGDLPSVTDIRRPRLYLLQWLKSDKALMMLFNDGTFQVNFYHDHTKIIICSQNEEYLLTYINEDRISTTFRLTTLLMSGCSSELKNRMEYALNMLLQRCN
Glycogen synthase kinase-3 beta (Homo sapiens), sequence (P49841 whole entry, looked up): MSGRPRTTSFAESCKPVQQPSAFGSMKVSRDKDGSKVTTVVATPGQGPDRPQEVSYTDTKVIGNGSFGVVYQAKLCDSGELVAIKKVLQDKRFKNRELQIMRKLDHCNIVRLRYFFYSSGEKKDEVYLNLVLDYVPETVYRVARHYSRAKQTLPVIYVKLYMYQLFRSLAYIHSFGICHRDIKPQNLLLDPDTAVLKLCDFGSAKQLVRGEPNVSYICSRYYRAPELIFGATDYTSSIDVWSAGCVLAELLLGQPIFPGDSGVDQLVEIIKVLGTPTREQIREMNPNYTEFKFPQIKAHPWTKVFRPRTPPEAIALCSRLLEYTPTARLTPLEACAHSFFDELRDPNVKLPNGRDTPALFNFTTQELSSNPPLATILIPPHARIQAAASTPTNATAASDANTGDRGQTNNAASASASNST
Casein kinase II subunit alpha (Homo sapiens), sequence (P68400 whole entry, looked up): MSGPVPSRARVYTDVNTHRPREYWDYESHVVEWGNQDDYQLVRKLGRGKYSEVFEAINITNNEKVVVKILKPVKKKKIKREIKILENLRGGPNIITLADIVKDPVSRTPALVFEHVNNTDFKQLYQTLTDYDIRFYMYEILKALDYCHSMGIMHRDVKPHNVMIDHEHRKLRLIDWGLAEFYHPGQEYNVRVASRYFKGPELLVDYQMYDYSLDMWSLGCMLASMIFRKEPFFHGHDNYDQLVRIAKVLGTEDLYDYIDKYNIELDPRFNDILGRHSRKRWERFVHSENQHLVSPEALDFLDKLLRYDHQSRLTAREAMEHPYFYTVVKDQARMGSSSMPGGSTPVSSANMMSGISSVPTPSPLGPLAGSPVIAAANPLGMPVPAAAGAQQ
Serine/threonine-protein kinase pim-1 (Homo sapiens), sequence (P11309 whole entry, looked up): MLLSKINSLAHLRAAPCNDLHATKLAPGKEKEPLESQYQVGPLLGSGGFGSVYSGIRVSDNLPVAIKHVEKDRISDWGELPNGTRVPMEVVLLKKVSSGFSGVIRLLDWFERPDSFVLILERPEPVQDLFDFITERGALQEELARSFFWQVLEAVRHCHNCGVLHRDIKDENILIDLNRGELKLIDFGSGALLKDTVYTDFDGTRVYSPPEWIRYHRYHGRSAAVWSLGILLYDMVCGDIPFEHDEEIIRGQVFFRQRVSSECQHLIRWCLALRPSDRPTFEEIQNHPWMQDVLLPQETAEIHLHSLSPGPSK
Histamine H2 receptor (Homo sapiens), sequence (P25021 whole entry): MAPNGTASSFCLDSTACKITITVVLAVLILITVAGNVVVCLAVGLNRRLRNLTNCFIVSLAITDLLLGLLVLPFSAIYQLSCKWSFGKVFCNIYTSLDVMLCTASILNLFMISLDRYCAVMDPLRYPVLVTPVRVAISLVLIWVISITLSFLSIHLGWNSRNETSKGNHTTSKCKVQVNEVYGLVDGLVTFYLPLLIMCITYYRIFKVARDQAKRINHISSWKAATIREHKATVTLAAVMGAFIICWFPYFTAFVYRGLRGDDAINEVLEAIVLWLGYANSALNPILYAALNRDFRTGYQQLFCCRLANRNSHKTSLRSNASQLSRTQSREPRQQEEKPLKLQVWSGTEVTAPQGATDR
Dual specificity protein kinase CLK2 (Homo sapiens), sequence (P49760 whole entry, looked up): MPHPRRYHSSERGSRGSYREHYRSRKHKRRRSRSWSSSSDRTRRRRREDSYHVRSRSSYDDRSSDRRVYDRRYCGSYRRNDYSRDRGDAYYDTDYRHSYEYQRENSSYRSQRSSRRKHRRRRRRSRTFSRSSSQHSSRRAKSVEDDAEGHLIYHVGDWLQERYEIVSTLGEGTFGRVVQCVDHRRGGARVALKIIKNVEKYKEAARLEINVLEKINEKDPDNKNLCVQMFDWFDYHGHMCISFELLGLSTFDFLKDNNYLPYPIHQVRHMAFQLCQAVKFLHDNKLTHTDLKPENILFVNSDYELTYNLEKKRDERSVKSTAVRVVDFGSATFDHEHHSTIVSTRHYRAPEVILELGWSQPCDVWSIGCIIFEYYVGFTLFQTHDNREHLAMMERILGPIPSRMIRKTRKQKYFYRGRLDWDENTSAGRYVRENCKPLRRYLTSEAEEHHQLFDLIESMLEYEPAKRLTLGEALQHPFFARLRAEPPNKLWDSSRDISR
C-X-C chemokine receptor type 2 (Homo sapiens), sequence (P25025 whole entry): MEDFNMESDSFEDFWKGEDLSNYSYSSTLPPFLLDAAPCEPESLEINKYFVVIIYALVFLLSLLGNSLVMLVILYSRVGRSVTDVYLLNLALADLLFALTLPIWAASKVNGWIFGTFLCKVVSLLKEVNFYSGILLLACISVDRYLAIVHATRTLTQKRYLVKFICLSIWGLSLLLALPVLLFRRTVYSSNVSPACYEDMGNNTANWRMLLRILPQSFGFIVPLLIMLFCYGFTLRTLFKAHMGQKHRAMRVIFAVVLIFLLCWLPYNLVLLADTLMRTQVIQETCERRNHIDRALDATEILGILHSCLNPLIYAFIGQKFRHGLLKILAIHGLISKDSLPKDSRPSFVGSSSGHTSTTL
Serine/threonine-protein kinase PAK 5 (Homo sapiens), sequence (Q9P286 whole entry, looked up): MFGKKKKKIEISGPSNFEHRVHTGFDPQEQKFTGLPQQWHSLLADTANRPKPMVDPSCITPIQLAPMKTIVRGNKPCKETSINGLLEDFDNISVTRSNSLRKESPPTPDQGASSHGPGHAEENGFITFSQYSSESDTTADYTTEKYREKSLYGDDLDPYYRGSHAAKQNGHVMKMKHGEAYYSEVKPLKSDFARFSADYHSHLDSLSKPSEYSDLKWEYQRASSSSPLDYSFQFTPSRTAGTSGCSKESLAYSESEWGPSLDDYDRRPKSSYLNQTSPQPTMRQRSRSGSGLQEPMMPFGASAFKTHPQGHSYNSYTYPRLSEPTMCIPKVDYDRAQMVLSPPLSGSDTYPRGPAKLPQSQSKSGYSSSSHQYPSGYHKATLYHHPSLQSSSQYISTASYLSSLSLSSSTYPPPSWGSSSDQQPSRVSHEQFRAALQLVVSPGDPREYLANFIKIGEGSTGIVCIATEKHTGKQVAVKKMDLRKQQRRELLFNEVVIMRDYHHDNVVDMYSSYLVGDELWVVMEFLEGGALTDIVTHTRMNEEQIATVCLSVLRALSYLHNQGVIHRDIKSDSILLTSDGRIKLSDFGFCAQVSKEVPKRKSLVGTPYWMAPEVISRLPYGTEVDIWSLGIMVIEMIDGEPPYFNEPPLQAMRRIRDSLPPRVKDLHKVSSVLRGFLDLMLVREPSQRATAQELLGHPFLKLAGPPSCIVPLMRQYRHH
Maternal embryonic leucine zipper kinase (Homo sapiens), sequence (Q14680 whole entry, looked up): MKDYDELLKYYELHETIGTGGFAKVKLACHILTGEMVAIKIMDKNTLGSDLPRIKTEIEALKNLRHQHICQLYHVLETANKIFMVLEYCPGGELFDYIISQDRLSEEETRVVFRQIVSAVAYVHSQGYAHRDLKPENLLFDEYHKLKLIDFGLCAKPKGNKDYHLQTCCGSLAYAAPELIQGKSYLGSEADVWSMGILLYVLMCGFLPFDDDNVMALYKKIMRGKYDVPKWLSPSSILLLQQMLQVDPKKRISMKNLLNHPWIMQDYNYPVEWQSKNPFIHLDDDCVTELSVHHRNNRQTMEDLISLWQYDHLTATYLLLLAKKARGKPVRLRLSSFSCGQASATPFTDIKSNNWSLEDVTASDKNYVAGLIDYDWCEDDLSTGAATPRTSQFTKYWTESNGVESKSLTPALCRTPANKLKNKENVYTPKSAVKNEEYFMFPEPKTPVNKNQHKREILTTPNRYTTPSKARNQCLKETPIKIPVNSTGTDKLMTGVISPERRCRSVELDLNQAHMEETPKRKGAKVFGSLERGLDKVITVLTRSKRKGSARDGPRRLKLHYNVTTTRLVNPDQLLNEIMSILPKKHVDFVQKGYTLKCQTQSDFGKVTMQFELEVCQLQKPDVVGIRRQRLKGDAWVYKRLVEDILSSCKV

C[C@@H]1CN(c2cc(-c3n[nH]c4ccc(OC5(C)CC5)cc34)ncn2)C[C@H](C)O1 [MLi-2]
inactive: [1] 5.44% | [2] 1.77% | [3] 5% | [4] 3.53% | [5] 1% | [6] 2% | [7] 55% | [8] -0.743% | [9] 3.5% | [10] 0% | [11] 5.96% | [12] 4.76% | [13] 3.28% | [14] 12.7% | [15] 13.6% | [16] -2.73%
